PMC8997399, “High-Throughput Screening to Identify Inhibitors of Plasmodium falciparum Importin α” (Cells, 2022)
Like-named read-outs stand apart in the source and are kept apart here.

Legend:
[1] = biological target: T1, MmIMPα/β heterodimer (Mus musculus, UniProt P52293); test: AlphaScreen binding assay, MmIMPα/β:T-ag-NLS-GFP interaction; settings: for inhibition at 10 µM: read-out: % Inhibition of IMPα-NLS Interaction MmIMPα/β
T1 construct: GST; made in house
Description: (§1) PfIMPα, TgIMPα, Mus musculus IMPα (MmIMPα), ΔIBBMmIMPα, and β1 (MmIMPβ) GST fusion proteins were expressed and purified essentially as previously. His-tagged TGS1-NLS-GFP, PfIMPα and TgIMPα proteins were purified using Ni^2+-affinity chromatography as described. His-tagged SV40 T-ag-NLS-GFP was purified as previously. Biotinylation of GST-tagged proteins was carried out using the Sulfo-NHS-Biotin reagent (Pierce, Rockford, IL, USA) as described previously. AlphaScreen binding assay was performed as described previously.
(§2) Plates were read for an Alphascreen signal on an Envision plate reader (PerkinElmer, Waltham, MA, USA), with signals from the negative control wells (no bait control) on each plate subtracted.

[2] = biological target: T2, MmΔIBBIMPα (Mus musculus, UniProt P52293); test: AlphaScreen binding assay, MmΔIBBIMPα:T-ag-NLS-GFP interaction; settings: for inhibition at 10 µM: read-out: % Inhibition of IMPα-NLS Interaction MmΔIBBIMPα
T2 construct: made in house
Description: as §1, §2

[3] = biological target: TgIMPα (Toxoplasma gondii, UniProt A0A125YID0); test: biochemical; type: binding; settings: for inhibition at 10 µM: read-out: % Inhibition of IMPα-NLS Interaction TgIMPα
Description: as §1, §2

[4] = biological target: PfIMPα (Plasmodium falciparum, UniProt Q8IAW0); test: biochemical; type: binding; settings: for inhibition at 10 µM: read-out: % Inhibition of IMPα-NLS Interaction PfIMPα
Description: as §1
Then, 10 nM biotinylated PfIMPα and 60 nM TGS1-NLS-GFP were used with library compounds, screened at 10 µM final concentration.
Briefly, 5 μL of each compound in DMSO was added to quadruplicate wells of a 384-well plate along with appropriate controls including DMSO alone and ivermectin, as previously, using a JANUS Modular Dispense Technology (MDT) robotic system (PerkinElmer, Waltham, MA, USA). This was followed by successive 7 and 5 μL additions, respectively, of PfIMPα (10 nM) and TGS1-NLS-GFP (60 nM) or PBS (“no bait” control), respectively, and 30 min incubation at room temperature. […] Then, 4 µL of the AlphaScreen donor beads (1/40 dilution of GSH. acceptor beads in PBS) was finally added to each well using a Multidrop, followed by a further incubation of 2 h at room temperature in the dark.
as §2

[5] = test system: T. gondii tachyzoites; settings: cited from earlier work
[6] = test system: P. falciparum 3D7 strain; test: P. falciparum growth inhibition assay (HRP2 sandwich ELISA); type: cell-based, Plasmodium falciparum; settings: Plasmodium falciparum, 3D7, 72 h
Description: Red blood cells (RBCs) were derived from blood from volunteers (approval from the Institute Ethics Committee, IIT Bombay, Mumbai, India) by density gradient centrifugation. Aliquots of cryopreserved P. falciparum 3D7 strain in human red blood cells (RBCs—3% hematocrit, <5% parasitemia) were thawed and cultured using RPMI (Roswell Park Memorial Institute) 1640 medium supplemented with 0.5% Albumax (Gibco^TM, Waltham, MA, USA), 50 mg/L hypoxanthine (Sigma-Aldrich, St Louis, MO, USA), 2 g/L D-glucose (Sigma-Aldrich, St Louis, MO, USA), 2 g/L sodium bicarbonate (Sigma-Aldrich, St Louis, MO, USA), and 56 mg/L of gentamicin (Abbott, Chicago, IL, USA) at 37 °C in 5% CO2 in a humidified incubator according to the standard procedures; suspension cultures were maintained at 3% hematocrit and <5% parasitemia, by adding a fresh medium daily and a regular addition of fresh human RBCs.
Before growth inhibition assays, cultures were synchronized using 5% D-sorbitol (Sigma-Aldrich, St Louis, MO, USA) predominantly to obtain the ring stage of the P. falciparum life cycle.
Growth assays in the absence and presence of inhibitors were performed using the Histidine–Rich Protein 2 (HRP2) sandwich horseradish peroxidase-linked immunosorbent assay to measure HRP2 protein levels as an indicator of growth. Briefly, 25 µL of compound was added to 96-well microculture plates (Eppendorf, Hamburg, Germany) of 0.25% (with fresh RBCs), and added at a hematocrit of 3%. The plates were then incubated for 72 h at 37 °C in a humidified incubator, sparged with 5% CO2. 72 h later, the plates were subjected to freeze–thaw to achieve hemolysis, and samples diluted 200-fold in H2O in transferring to another plate. A day prior to analysis, 96-well ELISA plates (Sigma-Aldrich, St Louis, MO, USA) were coated overnight at 4 °C with 100 µL of 1 μg/mL IgM capture antibody MPFM-55A (Immunology Consultants Laboratory, Portland, OR, USA) specific for P. falciparum HRP2. After blocking for 2 h at room temperature with 2% BSA in PBS, diluted samples were added to the wells, followed by incubation for 2 h, then the plates were washed three times with 0.05% Tween 20 in PBS. Next, 100 µL of the secondary antibody MPFG-55P (Immunology Consultants Laboratory, Portland, OR, USA) conjugated with horseradish peroxidase (0.25 μg/mL in PBS with 2% BSA) was then added to each well, and the plates incubated for 1 h at room temperature, prior to being washed three times, and 100 µL 3,3′, 5,5′ tetramethylbenzidine substrate (BD Biosciences, San Jose, CA, USA) being added. After 10 min incubation in the dark, 50 µL of 1 M H2SO4 was added and the absorbance was read at 450 nm on a Multiscan™ FC Microplate Spectrophotometer (Thermo Fisher Scientific, Waltham, MA, USA).

[7] = MTT assay for host cell cytotoxicity; type: cell-based, human; settings: human, HFF cells; MTT assay, 48 h; mean ± SD (n = 2)
Description: The MTT assay was used to measure the cytotoxicity of the small molecules against the HFF cells as described. Briefly, freshly confluent HFF cells in a 96-well culture plate were treated with increasing concentrations of compounds for 48 h, prior to the MTT assay.

[8] = test system: T. gondii RH strain expressing the luciferase reporter (RH-Fluc); test: T. gondii tachyzoite growth inhibition assay (RH-Fluc luciferase); type: cell-based, Toxoplasma gondii; settings: Toxoplasma gondii
Text: T. gondii RH strain expressing the luciferase reporter (RH-Fluc) was derived to assess the effect of the inhibitors on growth. Briefly, plasmid pCTG-EGFP [42] was modified by replacing the coding sequence of EGFP with that of the firefly luciferase reporter, using restriction enzymes BglII and PstI (Thermo Fisher Scientific, Waltham, MA, USA). The resultant plasmid, pCTG-Fluc, expressing firefly luciferase constitutively under the control of the T. gondii TubulinA promoter, was electroporated into the T. gondii RH strain [43, 44] using a Bio-Rad GenePulser Xcell system (1500 V, 50 Ω and 25 µF) along with restriction enzyme NotI to initiate RE-Mediated Integration (REMI) of the linearized plasmid into the genome. The resultant stable T. gondii line expressing the luciferase reporter was selected for resistance to 20 µM chloramphenicol (encoded by the plasmid pCTG), and dilution cloning was performed to ultimately identify the clone (RH-Fluc) with the highest luciferase activity (c. 4 × 10^7 RLU from 10^7 parasites) used for growth assays. T. gondii tachyzoites were maintained and cultured at 37 °C in 5% CO2 in a humidified incubator in primary human foreskin fibroblasts (HFF, ATCC); HFF cells were maintained in Dulbecco’s modified Eagle medium (DMEM) (Gibco^TM, Waltham, MA, USA) supplemented with 3.7 g/L sodium bicarbonate and 2.38 g/L HEPES, 10% Cosmic Calf serum (Hyclone^TM, Logan, UT, USA) and 20 mg/L gentamicin [47, 48].
Growth inhibition was assessed by luminescence measurements as described. Briefly, 100 μL of culture medium with or without inhibitors was added to confluent monolayers of HFF cells grown in 96-well treated culture plates (Eppendorf, Hamburg, Germany), followed by 100 µL of DMEM containing 5000 parasites. After 48 h, 150 µL of the culture media was discarded from each well without aspirating any parasites, and 10 µL lysis buffer was added to lyse the parasites, followed by 50 μL of 2× luciferase assay reagent (Promega, Madison, WI, USA). Luminescence was measured directly for 10 s using a Varioskan™ LUX multimode microplate reader (Thermo Fisher Scientific, Waltham, MA, USA).

[9] = biological target: His-tagged SV40 T-ag-NLS-GFP (NLS of simian virus SV40 large tumor antigen fused to GFP) (Simian Virus 40); test: AlphaScreen or HTRF
[10] = biological target: His-tagged TGS1-NLS-GFP (NLS of P. falciparum trimethyl guanosine synthase 1 fused to GFP) (Plasmodium falciparum); test: AlphaScreen or HTRF; Kd determination without inhibitors; His-tagged NLS-GFP (30 nM) and biotinylated-GST-IMPα (5 nM) as printed; pooled from three independent experiments
[11] = compounds at 10 μM, MmIMPα/β (5 nM):T-ag-NLS-GFP (30 nM), relative to 1% DMSO control
[12] = compounds at 10 μM, ΔIBBMmIMPα (5 nM):T-ag-NLS-GFP (30 nM), relative to 1% DMSO control
[13] = compounds at 10 μM, TgIMPα (5 nM):T-ag-NLS-GFP (30 nM), relative to 1% DMSO control
[14] = compounds at 10 μM, PfIMPα (10 nM):TGS1-NLS-GFP (60 nM), relative to 1% DMSO control, quadruplicate

Molecule: CNC[C@H](O)c1ccc(O)c(O)c1.Cl (racemic) [(±)-Epinephrine HCl]
- % Inhibition of IMPα-NLS Interaction MmIMPα/β [1]: 95%
- % Inhibition of IMPα-NLS Interaction MmIMPα/β ([1]; listed as (±)-epinephrine HCl): ≥ 95%
- % Inhibition of IMPα-NLS Interaction MmΔIBBIMPα [2]: 35%
- % Inhibition of IMPα-NLS Interaction MmΔIBBIMPα ([2]; listed as (±)-epinephrine HCl): < 55%

Molecule: Cl.NCC(O)c1cc(O)c(O)cc1F (stereo not drawn) [6-Fluoronorepinephrine HCl]
- % Inhibition of IMPα-NLS Interaction MmIMPα/β [1, 11]: 51%
- % Inhibition of IMPα-NLS Interaction MmΔIBBIMPα [2, 12]: 60%
- % Inhibition of IMPα-NLS Interaction TgIMPα [3, 13]: 67%
- % Inhibition of IMPα-NLS Interaction PfIMPα [4, 14]: 77%

Molecule: CNC[C@H](O)c1ccc(O)c(O)c1 [(−)-Epinephrine bitartrate]
- inhibition at 10 µM [1, 11]: 94%
- inhibition at 10 µM [2, 12]: 34%
- inhibition at 10 µM [3]: 23%
- inhibition at 10 µM [4]: 85%

Molecule: CC[n+]1c(/C=C/C=C2/N(C)c3ccccc3C2(C)C)sc2ccccc21.[I-] [AC-93253 iodide]
- % Inhibition of IMPα-NLS Interaction MmIMPα/β [1, 11]: 62%
- % Inhibition of IMPα-NLS Interaction MmΔIBBIMPα [2, 12]: 67%
- % Inhibition of IMPα-NLS Interaction TgIMPα [3, 13]: 72%
- % Inhibition of IMPα-NLS Interaction PfIMPα [4, 14]: 82%

Molecule: Cc1ccc(S(=O)(=O)/C=C/C#N)cc1 [Bay 11-7082]
- inhibition of growth of T. gondii tachyzoites [5]: inhibit the growth

Molecule: COc1ccc2c(c[n+](C)c3c4cc5c(cc4ccc23)OCO5)c1OC.[Cl-] [Chelerythrine Cl]
- % Inhibition of IMPα-NLS Interaction MmIMPα/β [1, 11]: 94%
- % Inhibition of IMPα-NLS Interaction MmΔIBBIMPα [2, 12]: 88%
- % Inhibition of IMPα-NLS Interaction TgIMPα [3, 13]: 67%
- % Inhibition of IMPα-NLS Interaction PfIMPα [4, 14]: 81%

Molecule: C[C@H]1[C@@H](O)O[C@@H]2O[C@@]3(C)CC[C@H]4[C@H](C)CC[C@@H]1[C@@]24OO3 [DHA, dihydroartemisinin]
- IC50 ([6]; parasites in culture, pooled, mean ± SD (n = 3)): 1 nM
- IC50 ([6]; single typical experiment (Figure 6)): 0.7 nM

Molecule: O=c1ccc2ccc(O)c(O)c2o1 [Daphnetin]
- inhibition at 10 µM [1, 11]: 83%
- inhibition at 10 µM [2, 12]: 81%
- inhibition at 10 µM [3, 13]: 70%
- inhibition at 10 µM [4, 14]: 81%

Molecule: O=C(Nc1ccc(N2CCNCC2)nc1)c1oc(-c2ccccc2)nc1C(F)(F)F [MMV024937]
- % Inhibition of IMPα-NLS Interaction MmIMPα/β [1, 11]: 24%
- % Inhibition of IMPα-NLS Interaction MmΔIBBIMPα [2, 12]: 70%
- % Inhibition of IMPα-NLS Interaction TgIMPα [3, 13]: 26%
- % Inhibition of IMPα-NLS Interaction PfIMPα [4, 14]: 73%

Molecule: CC(C)(CN)c1nc(-c2ccc(Cl)c(O)c2)c(-c2ccnc(N)n2)[nH]1 [MMV030734]
- % Inhibition of IMPα-NLS Interaction MmIMPα/β [1, 11]: 68%
- % Inhibition of IMPα-NLS Interaction MmΔIBBIMPα [2, 12]: 43%
- % Inhibition of IMPα-NLS Interaction TgIMPα [3, 13]: 44%

Molecule: O=C(Nc1nc(-c2ccccn2)cs1)c1cncn1-c1ccccc1 [MMV676512]
- % Inhibition of IMPα-NLS Interaction MmΔIBBIMPα [2, 12]: 54%
- % Inhibition of IMPα-NLS Interaction TgIMPα [3, 13]: 48%

Molecule: CCc1nc(N)nc(N)c1-c1ccc(Cl)cc1 [pyrimethamine]
- CC50 at 48 h [7]: > 10000 nM
- IC50 ([8]; Table S1, mean ± SEM (n = 3), read-out: IC50 T. gondii tachyzoites): 500 ± 100 nM
- IC50 ([8]; parasites in culture, 48 h, pooled, mean ± SD (n = 3) (Table 3), read-out: IC50 T. gondii): 460 ± 140 nM

Molecule: Mus musculus importin α deleted for the autoinhibitory IBB domain (MmΔIBBIMPα), biotinylated GST fusion protein (domain or fragment)
- Kd [9]: 2.6 nM

Molecule: Plasmodium falciparum importin α (PfIMPα), biotinylated GST fusion protein (natural protein)
- Kd [10]: 6.5 nM

Molecule: Toxoplasma gondii importin α (TgIMPα), biotinylated GST fusion protein (natural protein)
- Kd [9]: 3.5 nM
